In BindingDB's records for doi:10.1074/jbc.M402433200 (University of Bristol, 2004):

How the values were obtained:
[1] = target: L-lactate dehydrogenase (Plasmodium falciparum (isolate CDC / Honduras), UniProt Q27743); assay: Lactate Dehydrogenase Inhibition Assay; conditions: pH 7.5; 25 °C
Source text: (§1) An LDH enzymatic assay developed for high throughput format was used. The dehydrogenase reaction was run in the lactate to pyruvate direction and coupled with the ability of diaphorase to reduce p-iodonitrotetrazolium violet using the NADH generated in the conversion of lactate to pyruvate. The progression of the coupling reaction was monitored as the increase of absorbance at 492 nm. Positive hits were subjected to additional analysis to determine IC50 values.

[2] = target: L-lactate dehydrogenase B chain (Homo sapiens, UniProt P07195); assay: Lactate Dehydrogenase Inhibition Assay
Sequence of L-lactate dehydrogenase B chain (P07195 whole entry): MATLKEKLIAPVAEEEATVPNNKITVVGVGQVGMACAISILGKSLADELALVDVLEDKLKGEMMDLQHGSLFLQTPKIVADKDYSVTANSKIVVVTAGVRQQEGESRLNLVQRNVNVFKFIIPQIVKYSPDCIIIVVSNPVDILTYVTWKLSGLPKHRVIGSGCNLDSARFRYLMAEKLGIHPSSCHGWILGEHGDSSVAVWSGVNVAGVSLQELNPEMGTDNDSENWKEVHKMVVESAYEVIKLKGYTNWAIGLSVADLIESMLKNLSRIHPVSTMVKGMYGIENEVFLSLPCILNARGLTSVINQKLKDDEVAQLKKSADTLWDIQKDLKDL
Source text: as §1

Sequence of L-lactate dehydrogenase (Q27743 whole entry): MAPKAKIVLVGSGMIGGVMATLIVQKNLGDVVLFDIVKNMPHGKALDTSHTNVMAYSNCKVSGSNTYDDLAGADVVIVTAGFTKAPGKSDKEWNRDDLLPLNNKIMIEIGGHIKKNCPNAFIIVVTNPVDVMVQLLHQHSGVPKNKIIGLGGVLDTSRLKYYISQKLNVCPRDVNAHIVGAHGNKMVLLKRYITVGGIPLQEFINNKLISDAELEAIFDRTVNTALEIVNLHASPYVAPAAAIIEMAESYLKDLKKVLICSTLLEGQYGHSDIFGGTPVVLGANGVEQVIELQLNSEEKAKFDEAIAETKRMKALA

| SMILES | IC50 [1] [µM] | Ki [1] [nM] | IC50 [2] [µM] |
| --- | --- | --- | --- |
| O=C(O)c1nonc1O [4-hydroxy-1,2,5-oxadiazole-3-carboxylic acid] | 0.65 | 210 | 72.1 |
| CCOC(=O)c1nonc1OCc1ccc(OC)cc1 [ethyl 4-[(4-methoxyphenyl)methoxy]-1,2,5-oxadiazole-3-carboxylate] | > 200 |  | > 200 |
| COc1nocc1C(=O)O [3-methoxy-1,2-oxazole-4-carboxylic acid] | > 100 |  | > 100 |
| CCOC(=O)c1co[nH]c1=O [ethyl 3-hydroxy-1,2-oxazole-4-carboxylate] | > 100 |  | > 100 |
| O=C(O)c1cnon1 [1,2,5-oxadiazole-3-carboxylic acid] | > 200 |  | > 200 |
| O=C(O)c1nonc1OC/C=C/c1ccccc1 [4-{[(2E)-3-phenylprop-2-en-1-yl]oxy}-1,2,5-oxadiazole-3-carboxylic acid] | > 200 |  | > 200 |
| O=C(O)c1nonc1NCCO [4-[(2-hydroxyethyl)amino]-1,2,5-oxadiazole-3-carboxylic acid] | > 200 |  | > 200 |
| Nc1nsnc1C(=O)O [4-amino-1,2,5-thiadiazole-3-carboxylic acid] | > 100 |  | > 100 |
| Cc1o[nH]c(=O)c1C(=O)O [3-hydroxy-5-methyl-1,2-oxazole-4-carboxylic acid] | > 100 |  | > 100 |
| COc1nsnc1C(=O)O [4-methoxy-1,2,5-thiadiazole-3-carboxylic acid] | > 100 |  | > 100 |
| O=C(O)c1nsnc1O [4-hydroxy-1,2,5-thiadiazole-3-carboxylic acid] | 0.14 | 290 | 10.3 |
| Nc1nonc1C(=O)O [4-amino-1,2,5-oxadiazole-3-carboxylic acid] | > 200 |  | > 200 |
| O=C(O)c1nn(Cc2ccccc2)[nH]c1=O [2-benzyl-5-hydroxy-2H-1,2,3-triazole-4-carboxylic acid] | > 100 |  | > 100 |
| CCOC(=O)c1c[nH]oc1=O [ethyl 5-hydroxy-1,2-oxazole-4-carboxylate] | > 100 |  | > 100 |
| O=C(O)c1c(O)nnn1Cc1ccccc1 [1-benzyl-4-hydroxy-1H-1,2,3-triazole-5-carboxylic acid] | > 100 |  | > 100 |
| O=C(O)c1noc(C(=O)O)c1O [4-hydroxy-1,2-oxazole-3,5-dicarboxylic acid] | 81 |  | > 100 |
| COC(=O)c1c(C)[nH]oc1=O [methyl 5-hydroxy-3-methyl-1,2-oxazole-4-carboxylate] | > 100 |  | > 100 |
| O=C(O)c1nocc1O [4-hydroxy-1,2-oxazole-3-carboxylic acid] | 16 |  | > 100 |
| CCOC(=O)c1nonc1O [ethyl 4-hydroxy-1,2,5-oxadiazole-3-carboxylate] | > 100 |  | > 100 |
| O=C(O)c1cnn[nH]1 [1H-1,2,3-triazole-5-carboxylic acid] | 98 |  | > 200 |
| O=C(O)Cc1no[nH]c1=O [2-(4-hydroxy-1,2,5-oxadiazol-3-yl)acetic acid] | > 200 |  | > 200 |
| O=C(O)c1conc1O [3-hydroxy-1,2-oxazole-4-carboxylic acid] | 1.1 | 470 | 54 |
| Cn1nnc(O)c1C(=O)O [4-hydroxy-1-methyl-1H-1,2,3-triazole-5-carboxylic acid] | > 100 |  | > 100 |
| Cn1occ(C(=O)O)c1=O [2-methyl-3-oxo-2,3-dihydro-1,2-oxazole-4-carboxylic acid] | > 100 |  | > 100 |
| O=C(OCc1ccc(Cl)c(Cl)c1)c1no[nH]c1=O [(3,4-dichlorophenyl)methyl 4-hydroxy-1,2,5-oxadiazole-3-carboxylate] | > 200 |  | > 200 |
| Cn1nc(O)c(C(=O)O)n1 [5-hydroxy-2-methyl-2H-1,2,3-triazole-4-carboxylic acid] | > 100 |  | > 100 |
